How the values were obtained:
MV4-11 cells = assay: Cytotoxicity against MV4-11 cells (CellTiter-Glo); type: cell-based; conditions: Homo sapiens, incubated for 72 hours, CellTiter-Glo chemiluminescence
Procedure: Determination of the IC50 Value of the Compound's Cytotoxicity Against MV4-11 Cells
MV-4-11 cells were cultured with IMDM complete medium (IMDM+10% fetal bovine serum+1% Penicillin-Streptomycin, a mixture of penicillin-streptomycin). • 2. MV-4-11 cells in good condition were collected and washed twice with DPBS ([…] phosphate buffered saline solution). • 3. MV-4-11 cells were resuspended with IMDM complete medium, the cell density was adjusted to 1.11×10^6 cells/mL, and the MV-4-11 cells were added to 96-well plates at 90 μL per well. • 4. A compound solution with 10-fold concentration was prepared with IMDM complete medium, 10 μL of the compound solution with 10-fold concentration was added to the cells in the 96-well plate, mixed well, and then the 96-well plate was placed in a 5% CO2 incubator at 37° C. and incubated for 72 hours. • 5. After the incubation, the 96-well plate was taken out and equilibrated for 30 minutes at room temperature. Then 100 μL of CellTiter Glo reagent was added to each well and mixed on a horizontal shaker for 2 minutes. • 6. The 96-well plate was removed, equilibrated at room temperature for 10 minutes, and the chemiluminescence value was detected on a microplate reader.

IRAK4 kinase = biological target: T1, IRAK4 kinase (Homo sapiens, UniProt Q9NWZ3); assay: Kinase inhibition, fluorescence microfluidic mobility shift assay (IRAK4); type: biochemical; conditions: substrate peptide FAM-P8 3 μM, ATP 10 μM; one hour at 28° C.; assayed in duplicate
T1 sequence (Q9NWZ3 1-460): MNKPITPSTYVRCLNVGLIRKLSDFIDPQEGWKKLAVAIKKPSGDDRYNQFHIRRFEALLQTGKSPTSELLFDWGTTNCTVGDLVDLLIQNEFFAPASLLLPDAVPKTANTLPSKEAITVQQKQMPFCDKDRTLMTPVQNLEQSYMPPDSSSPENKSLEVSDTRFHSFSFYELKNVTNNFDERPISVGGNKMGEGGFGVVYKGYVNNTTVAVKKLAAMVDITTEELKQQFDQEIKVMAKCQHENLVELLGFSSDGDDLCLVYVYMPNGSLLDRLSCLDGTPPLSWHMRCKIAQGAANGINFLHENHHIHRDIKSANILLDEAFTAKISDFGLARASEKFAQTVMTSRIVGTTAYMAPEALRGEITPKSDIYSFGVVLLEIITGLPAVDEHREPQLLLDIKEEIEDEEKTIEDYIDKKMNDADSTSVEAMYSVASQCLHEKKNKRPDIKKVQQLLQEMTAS

FLT3 kinase = biological target: T2, FLT3 kinase (Homo sapiens, UniProt P36888); assay: Kinase inhibition, fluorescence microfluidic mobility shift assay (FLT3); type: biochemical; conditions: substrate peptide FAM-P2 3 μM, ATP 97 μM; one hour at 28° C.; assayed in duplicate
T2 sequence (P36888 564-993): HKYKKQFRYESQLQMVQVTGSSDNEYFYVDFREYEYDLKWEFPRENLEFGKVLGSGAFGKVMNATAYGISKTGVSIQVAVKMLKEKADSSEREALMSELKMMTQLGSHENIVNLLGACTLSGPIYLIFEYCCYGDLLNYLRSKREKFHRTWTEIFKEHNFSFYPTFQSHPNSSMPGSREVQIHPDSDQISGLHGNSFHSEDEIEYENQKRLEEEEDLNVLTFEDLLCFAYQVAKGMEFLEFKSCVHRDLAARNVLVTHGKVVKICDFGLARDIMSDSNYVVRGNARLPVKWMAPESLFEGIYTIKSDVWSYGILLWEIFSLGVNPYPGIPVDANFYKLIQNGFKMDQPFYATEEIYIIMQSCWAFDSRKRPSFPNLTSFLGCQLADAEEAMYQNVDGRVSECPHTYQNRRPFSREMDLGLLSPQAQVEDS
Procedure: Based on the experimental method of fluorescence microfluidic mobility shift assay, the IC50 value of the compound for competitive binding of ATP to kinases IRAK4 and FLT3 was determined. The initial detection concentration of the compound was 10 μM, which was diluted to 0.38 nM with a 4-fold gradient and assayed in duplicate. In this case, commercially available staurosporine was the standard control for the assay.
Information on reagents and consumables is as follows: • IRAK4 kinase (Carna, Cat. No. 09-145, Lot. No. 14CBS-0020 H) • FLT3 kinase (Carna, Cat. No. 08-154, Lot. No. 07CBS-2350) • Substrate peptide FAM-P2 (GL Biochem, Cat. No. 112394, Lot. No. P131014-XP112394) • Substrate peptide FAM-P8 (GL Biochem, Cat. No. 112396, Lot. No. P170731-SY112396) • ATP (adenosine triphosphate, Sigma, Cat. No. A7699-1G, CAS No. 987-65-5) • DMSO (dimethyl sulfoxide, Sigma, Cat. No. D2650) • EDTA (ethylenediaminetetraacetic acid, Sigma, Cat. No. E5134, CAS No. 60-00-4) • Staurosporine (Selleckchem, Cat. No. 51421) • HEPES (4-(2-Hydroxyethyl)-1-piperazineethanesulfonic acid, Gibco, Cat. No. 15630-080) • Brij-35 solution (Polyoxyethylene lauryl ether, Sigma, Cat. No. B41840-100 mL) • DTT (dithiothreitol, Sigma, Cat. No. D0632-20G) • 0.2% Coating Reagent #3 (0.2% coating reagent, Perkin Elmer, Cat. No. 760050) • 96-well plate (Corning, Cat. No. 3365) • 384-well plate (Corning, Cat. No. 3573) Experimental operation method: • 1) FLT3 and IRAK4 kinases were dissolved in the kinase buffer (50 mM HEPES pH 7.5, 10 mM MgCl2, 2 mM DTT, and 0.01% Brij-35) at final concentrations of 0.9 nM, 30 nM, and 6 nM, respectively. • 2) The substrate peptide FAM-P2 and the substrate peptide FAM-P8, together with ATP, were dissolved in the above kinase buffer, respectively, where the final concentrations of the substrate peptide FAM-P2 and ATP for the determination of FLT3 were 3 μM and 97 μM, respectively; and the final concentrations of the substrate peptide FAM-P8 and ATP for the determination of IRAK4 were 3 μM and 10 μM, respectively. • 3) Compound dilution: The compound was first diluted to 50 μM, and then diluted downward with DMSO in a 4-fold gradient. In this case, the solution without compound and kinase served as the blank control, corresponding to the “minimum value” shown below; the solution without compound but containing kinase, adenosine triphosphate, DMSO, and the buffer served as the positive control, corresponding to the “maximum value” shown below. • 4) Kinase reaction and termination: 10 μL of the kinase buffer was added to a 384-well plate containing 5 μL of the compound to be tested, and the mixture was incubated for 10 minutes at room temperature; another 10 μL, of buffer containing the substrate peptide and adenosine triphosphate was added to the 384-well plate, and after incubation for one hour at 28° C., 25 μL, of termination solution (100 mM HEPES pH 7.5, 50 mM EDTA, 0.2% Coating Reagent #3, and 0.015% Brij-35) was added to each well for reaction termination. • 5) Data reading: CaliperEZ Reader II instrument was used to read the conversion rate data. Setting conditions: downstream voltage as −500 V, upstream voltage as −2250 V, base pressure as −0.5 PSI, and screening pressure as −1.2 PSI. • 6) Data calculation: the conversion rate data was copied from CaliperEZ Reader II, and the conversion rate was converted into inhibition rate data.

IC50 (IRAK4 kinase)	IC50 (FLT3 kinase)	Structure (SMILES)	IC50 (MV4-11 cells)
11.7 nM	0.29 nM	Cc1cc(-c2nc(C(=O)Nc3cc4cn(CC5(F)CNC5)nc4cc3C(C)(C)O)co2)ccn1 [II-108]	22 nM
6.48 nM	4.2 nM	[2H]C([2H])([2H])C(O)(c1cc2nn(CCC(C)(C)O)cc2cc1NC(=O)c1coc(-c2ccnc(C(F)(F)F)c2)n1)C([2H])([2H])[2H] [II-109]	15.2 nM
4.94 nM	0.42 nM	Cc1cc(-c2nc(C(=O)Nc3cc4cn(CCC(C)(C)O)nc4cc3C(C)(O)C(F)(F)F)co2)ccn1 (stereo not drawn) [II-111]	0.8 nM
6.96 nM	2.8 nM	CC(C)(O)c1cc2nn([C@H]3CC[C@@H](O)CC3)cc2cc1NC(=O)c1coc(-c2ccnc(C(F)(F)F)c2)n1 [II-112]	11.9 nM
4.6 nM	0.38 nM	CC(C)N1CCC(n2cc3cc(NC(=O)c4coc(-c5ccnc(C(F)(F)F)c5)n4)c(C(C)(C)O)cc3n2)CC1 [II-113F]	6 nM
5.9 nM	0.26 nM	Cc1cc(-c2nc(C(=O)Nc3cc4cn(C5CC6CCC(C5)O6)nc4cc3C(C)(C)O)co2)ccn1 (stereo not drawn) [II-114]	1.3 nM
11 nM	0.25 nM	Cc1cc(-c2nc(C(=O)Nc3cc4cn(CC5(F)COC5)nc4cc3C(C)(C)O)co2)ccn1 [II-115]	2.5 nM
5.54 nM	4 nM	[2H]C([2H])([2H])C(O)(CCn1cc2cc(NC(=O)c3coc(-c4ccnc(C(F)(F)F)c4)n3)c(C(C)(C)O)cc2n1)C([2H])([2H])[2H] [II-117]	23.2 nM
9.1 nM	3.5 nM	CC(C)(O)c1cc2nn(C3CCOCC3)cc2cc1NC(=O)c1coc(-c2ccnc(C(F)(F)F)c2)n1 [II-121]	33 nM
14.1 nM	6.23 nM	Cc1cc(-c2nc(C(=O)Nc3cc4oc(N5CCOCC5)nc4nc3C(C)(C)O)co2)ccn1 [II-122]	33 nM
4.8 nM	0.31 nM	Cc1cc(-c2nc(C(=O)Nc3cc4sc(N5CCOCC5)nc4nc3C(C)(C)O)co2)ccn1 [II-124]	5 nM
57 nM	11 nM	Cc1cc(-c2nc(C(=O)Nc3cc4oc(N5CCC(F)(F)CC5)nc4nc3N3CCC(O)C3)co2)ccn1 (stereo not drawn) [II-129]	49.6 nM
7.18 nM	0.35 nM	Cc1cc(-c2nc(C(=O)Nc3cc4oc(N5CCOCC5)nc4cc3N3CCC(O)C3)co2)ccn1 (stereo not drawn) [II-132]	1.2 nM
4.84 nM	0.26 nM	Cc1cc(-c2nc(C(=O)Nc3cc4sc(N5CCOCC5)nc4cc3N3CCC(O)C3)co2)ccn1 (stereo not drawn) [II-133]	0.2 nM

Structure (SMILES)	IC50 (IRAK4 kinase)	IC50 (FLT3 kinase)	IC50 (MV4-11 cells)
CC(C)(O)c1cc2nn(C3CC4CCC(C3)N4)cc2cc1NC(=O)c1coc(-c2ccnc(C(F)(F)F)c2)n1 (stereo not drawn) [II-118]	12.2 nM	0.44 nM	6.2 nM

From patent publication US12195479B2, “Five- and six-membered compound, and preparation method therefor and pharmaceutical composition and use thereof” (HANGZHOU POLYMED BIOPHARMACEUTICALS, INC., priority 2021, dated 2025)
